In patent publication US20140275169A1, “Combination Therapies for Enhancing Protein Degradation” (The Regents of the University of Michigan, priority 2013, published 2014):

Columns and labels:
Usp14 = Usp14 (Homo sapiens, UniProt P54578); test: Inhibition of Usp14 (statement in overview); type: biochemical
endogenous total tau = test: Degradation of endogenous total tau in primary cortical rat neurons, SDS-PAGE immunoblot with tau-5 antibody; type: cell-based; conditions: 24 hours, individual compounds (lanes 2 and 3) and combination (lane 4)
Procedure: These independently duplicated experiments were carried out in primary cortical rat neurons for 24 hours. Tau was detected after SDS-PAGE immunoblot analysis, using the tau-5 antibody.
The combined effect of Usp14 inhibitors and Hsp70 inhibitors on tau levels is shown to be synergistic in this experiment in that this effect (lane 4) is greater than the sum of the individual effects of these compounds (lanes 2 and 3). To cite one example, in FIG. 5A the individual effects are approximately 8% and 2% for Usp14 and Hsp70 inhibitors, respectively, while the combined effect is approximately 71%, far greater than the expected additive effect of approximately 10%.
This experiment was carried out in primary cortical rat neurons for 48 hours. Tau was detected after SDS-PAGE immunoblot analysis, using the tau-5 antibody.
This experiment was carried out in primary cortical rat neurons for 24 hours. Tau was detected after SDS-PAGE immunoblot analysis, using the tau-5 antibody.

Chain of Usp14 (P54578 whole entry, species assumed): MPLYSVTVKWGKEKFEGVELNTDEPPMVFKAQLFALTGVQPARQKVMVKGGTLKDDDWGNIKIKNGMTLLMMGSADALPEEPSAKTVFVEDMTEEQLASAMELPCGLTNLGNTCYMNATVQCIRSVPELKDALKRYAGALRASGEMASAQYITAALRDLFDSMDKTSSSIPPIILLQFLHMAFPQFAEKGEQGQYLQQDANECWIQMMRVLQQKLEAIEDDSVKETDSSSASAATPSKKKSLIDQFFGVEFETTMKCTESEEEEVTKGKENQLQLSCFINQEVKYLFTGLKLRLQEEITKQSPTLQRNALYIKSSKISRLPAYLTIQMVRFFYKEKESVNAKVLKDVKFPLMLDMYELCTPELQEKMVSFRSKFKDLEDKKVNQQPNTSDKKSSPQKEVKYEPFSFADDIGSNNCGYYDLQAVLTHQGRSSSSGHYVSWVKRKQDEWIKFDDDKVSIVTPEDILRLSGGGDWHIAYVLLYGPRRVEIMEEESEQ

SMILES	Usp14 inhibition, qualitative (Usp14)	effect on tau levels (FIG. 5A) (endogenous total tau)
Cc1cc(C(=O)CN2CCCC2)c(C)n1-c1ccc(F)cc1 [IU1, 1-(1-(4-fluorophenyl)-2,5-dimethyl-1H-pyrrol-3-yl)-2-(pyrrolidin-1-yl)ethanone]	inhibitor of Usp14	
Cc1cc(C(=O)CN2CCCCC2)c(C)n1-c1ccc(Cl)cc1 [IU1-47]	more potent variant of IU1	approximately 8%
